{"source": "patent US8614182B2", "about": "(Jiangsu Hansoh Pharmaceuticals Co., Ltd., priority 2009, dated 2013)", "key": {"[1]": {"biological_target": "T1, Glucagon-like peptide-1 receptor (GLP1R) (Homo sapiens, UniProt P43220)", "T1 construct": "expressed in transfected cells; host or cells: HEK293", "T1 sequence (P43220 24-463, species assumed)": "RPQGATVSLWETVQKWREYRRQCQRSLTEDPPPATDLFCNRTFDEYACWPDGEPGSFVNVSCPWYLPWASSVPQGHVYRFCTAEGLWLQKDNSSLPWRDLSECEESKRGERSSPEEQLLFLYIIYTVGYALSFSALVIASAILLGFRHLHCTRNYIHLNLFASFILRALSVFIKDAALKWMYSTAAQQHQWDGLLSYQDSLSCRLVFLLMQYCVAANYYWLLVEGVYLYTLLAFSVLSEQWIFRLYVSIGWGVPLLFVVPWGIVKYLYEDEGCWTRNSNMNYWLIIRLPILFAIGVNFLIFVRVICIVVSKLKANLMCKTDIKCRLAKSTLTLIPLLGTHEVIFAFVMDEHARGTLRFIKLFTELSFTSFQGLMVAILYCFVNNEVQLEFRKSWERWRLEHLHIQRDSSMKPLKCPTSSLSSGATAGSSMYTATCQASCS", "test": "Agonist activity on GLP1R, cAMP response element luciferase reporter gene in HEK293 cells", "format": "cell-based", "details": "HEK293 cells stably transfected with GLP1R and pCRE-Luc, 5 hours incubation; read-out: Maximum reaction rate", "text": "GLP1R is a receptor coupled with Gs protein, of which the binding with the agonists will result in an increase of intracellular cAMP concentration. In the present experiment, GLP1R and the luciferase reporter gene plasmid regulated by cAMP response elements are co-transfected into HEK293 cells. When the compound binds to the receptor and activates the receptors, the expression of the luciferase will increase. The activation status of the compound to GLP1R can be learned by testing the activity of the luciferase.\n2. The compounds or positive drugs having a certain concentration gradient were added (3 wells per concentration) and incubated at 37° C. for 5 hours. The negative control was solvent DMSO.\n3. 50 μl culture medium was taken from each well, and 50 μl of the luciferase substrate were added and vortexed for 10 minutes.\n4. 80 μl reaction solution was taken and transferred to a white 96 well plate, then detected on the Invision microplate reader (enzyme-labelling measuring instrument)."}, "[2]": {"system": "db/db mice with type 2 diabetes", "test": "Random blood glucose of db/db mice after single subcutaneous injection", "format": "in vivo", "details": "for random blood glucose: n = 8; for decrease rate of random blood glucose: versus control group", "procedure": "db/db mice with type 2 diabetes were divided into six groups based on a random blood glucose and body weight (8 per group). […] The random blood glucose of the mice is determined at differete time after administration.\nPreparation method: 1 bottle of the compound (2 mg/bottle) was dissolved with double-distilled water to prepare a colorless and transparent solution of which the concentration is 2 mg/mL. […] “ACCU-CHEK® Advantage” blood glucose meter form Roche was used to determine the blood glucose.\nRoute and volume of administration: Single subcutaneous injection dose, dose volume was 5 mL/kg. […]\nThe random blood glucoses of db/db mice were measured.\nEach group has 8 mice, half male and half female. The animals of each group were administered with the test compounds or solvent control respectively through single subcutaneous injection."}}, "note": "Non-standard residues stand in square brackets, D forms with d. Residues, ends and D or L forms follow the SMILES beside them. *: point of attachment. εLys(Nα-Palmitoyl) = CCCCCCCCCCCCCCCC(=O)N[C@@H](CCCCN*)C(=O)O"}
{"smiles": "CCCCCCCCCCCCCCCC(=O)N[C@@H](CCCCNC(=O)[C@H](CO)NC(=O)[C@@H]1CCCN1C(=O)[C@@H]1CCCN1C(=O)[C@@H]1CCCN1C(=O)[C@H](C)NC(=O)CNC(=O)[C@H](CO)NC(=O)[C@H](CO)NC(=O)[C@@H]1CCCN1C(=O)CNC(=O)CNC(=O)[C@H](CCCNC(=N)N)NC(=O)[C@@H](NC(=O)[C@H](CC(C)C)NC(=O)[C@H](Cc1c[nH]c2ccccc12)NC(=O)[C@H](C)NC(=O)[C@@H](NC(=O)[C@H](Cc1ccccc1)NC(=O)[C@H](CCC(=O)O)NC(=O)[C@H](CCCCN)NC(=O)[C@H](C)NC(=O)[C@H](C)NC(=O)[C@H](CCC(=O)O)NC(=O)[C@H](CCC(=O)O)NC(=O)[C@H](CCC(=O)O)NC(=O)[C@H](CC(C)C)NC(=O)[C@H](Cc1ccc(O)cc1)NC(=O)[C@H](CO)NC(=O)[C@H](CO)NC(=O)[C@@H](NC(=O)[C@H](CC(=O)O)NC(=O)[C@H](CO)NC(=O)[C@@H](NC(=O)[C@H](Cc1ccccc1)NC(=O)[C@@H](NC(=O)CNC(=O)[C@H](CCC(=O)O)NC(=O)[C@@H](C)NC(=O)[C@@H](N)Cc1c[nH]cn1)[C@@H](C)O)[C@@H](C)O)C(C)C)[C@@H](C)CC)C(C)C)C(=O)O", "note": "[HS-20003] (H-H[dA]EGTFTSDVSSYLEEEAAKEFIAWLVRGGPSSGAPPPS-{εLys(Nα-Palmitoyl)}; N-terminus and C-terminus assumed)", "values": [{"measurement": "Emax", "setting": "[1]", "result": 87.9, "unit": "%"}, {"measurement": "random blood glucose", "setting": "[2]; 3 μg/kg single s.c., 1 h after administration, X ± s", "result": "19.56 ± 1.19", "unit": "mmol/L"}, {"measurement": "decrease rate of random blood glucose", "setting": "[2]; 3 μg/kg single s.c., 1 h after administration", "result": 17.33, "unit": "%"}, {"measurement": "random blood glucose", "setting": "[2]; 3 μg/kg single s.c., 2 h after administration, X ± s", "result": "19.44 ± 1.48", "unit": "mmol/L"}, {"measurement": "decrease rate of random blood glucose", "setting": "[2]; 3 μg/kg single s.c., 2 h after administration", "result": 14.09, "unit": "%"}, {"measurement": "random blood glucose", "setting": "[2]; 3 μg/kg single s.c., 4 h after administration, X ± s", "result": "19.63 ± 1.12", "unit": "mmol/L"}, {"measurement": "decrease rate of random blood glucose", "setting": "[2]; 3 μg/kg single s.c., 4 h after administration", "result": 10.80, "unit": "%"}, {"measurement": "random blood glucose", "setting": "[2]; 3 μg/kg single s.c., 8 h after administration, X ± s", "result": "22.59 ± 1.05", "unit": "mmol/L"}, {"measurement": "decrease rate of random blood glucose", "setting": "[2]; 3 μg/kg single s.c., 8 h after administration", "result": 11.03, "unit": "%"}, {"measurement": "random blood glucose values compared with those of the control group", "setting": "[2]; 3 μg/kg single s.c., after 2 h, 4 h and 8 h", "result": "no significant difference"}, {"measurement": "random blood glucose values compared with those of the control group", "setting": "[2]; 3 μg/kg single s.c., after one hour, P<0.05", "result": "decreased significantly"}, {"measurement": "random blood glucose", "setting": "[2]; 3 μg/kg single s.c., before administration, X ± s", "result": "25.16 ± 1.49", "unit": "mmol/L"}, {"measurement": "decrease rate of random blood glucose", "setting": "[2]; 10 μg/kg single s.c., 1 h after administration", "result": 23.62, "unit": "%"}, {"measurement": "random blood glucose", "setting": "[2]; 10 μg/kg single s.c., 1 h after administration, ± s", "result": "20.74 ± 0.98", "unit": "mmol/L"}, {"measurement": "decrease rate of random blood glucose", "setting": "[2]; 10 μg/kg single s.c., 2 h after administration", "result": 25.93, "unit": "%"}, {"measurement": "random blood glucose", "setting": "[2]; 10 μg/kg single s.c., 2 h after administration, ± s", "result": "21.10 ± 0.80", "unit": "mmol/L"}, {"measurement": "decrease rate of random blood glucose", "setting": "[2]; 10 μg/kg single s.c., 4 h after administration", "result": 36.49, "unit": "%"}, {"measurement": "random blood glucose", "setting": "[2]; 10 μg/kg single s.c., 4 h after administration, ± s", "result": "19.54 ± 1.80", "unit": "mmol/L"}, {"measurement": "decrease rate of random blood glucose", "setting": "[2]; 10 μg/kg single s.c., 8 h after administration", "result": 26.12, "unit": "%"}, {"measurement": "random blood glucose", "setting": "[2]; 10 μg/kg single s.c., 8 h after administration, ± s", "result": "22.14 ± 2.16", "unit": "mmol/L"}, {"measurement": "decrease rate of random blood glucose", "setting": "[2]; 10 μg/kg single s.c., 24 h after administration", "result": 11.89, "unit": "%"}, {"measurement": "random blood glucose", "setting": "[2]; 10 μg/kg single s.c., 24 h after administration, ± s", "result": "24.45 ± 1.55", "unit": "mmol/L"}, {"measurement": "random blood glucose values compared with those of the control group", "setting": "[2]; 10 μg/kg single s.c., after 2 h, 4 h and 8 h", "result": "still keep at a lower level"}, {"measurement": "random blood glucose values compared with those of the control group", "setting": "[2]; 10 μg/kg single s.c., after 24 hours", "result": "no significant difference"}, {"measurement": "random blood glucose values compared with those of the control group", "setting": "[2]; 10 μg/kg single s.c., after one hour, P<0.01", "result": "decreased significantly"}, {"measurement": "random blood glucose", "setting": "[2]; 10 μg/kg single s.c., before administration, ± s", "result": "23.20 ± 1.36", "unit": "mmol/L"}, {"measurement": "random blood glucose level (words, test conclusions)", "setting": "[2]; single s.c., dose of 3 μg/kg (so in the source)", "result": "decreased obviously"}]}
{"smiles": "CCCCCCCCCCCCCCCC(=O)N[C@@H](CCCCNC(=O)[C@H](CO)NC(=O)[C@@H]1CCCN1C(=O)[C@@H]1CCCN1C(=O)[C@@H]1CCCN1C(=O)CNC(=O)CNC(=O)[C@H](CCCCN)NC(=O)[C@H](CCCCN)NC(=O)CNC(=O)[C@H](CCCNC(=N)N)NC(=O)CNC(=O)[C@H](CCCCN)NC(=O)[C@@H](NC(=O)[C@H](CC(C)C)NC(=O)[C@H](Cc1c[nH]c2ccccc12)NC(=O)[C@@H](NC(=O)[C@@H](NC(=O)[C@H](Cc1ccccc1)NC(=O)[C@H](CCC(=O)O)NC(=O)[C@H](C)NC(=O)[C@H](C)NC(=O)[C@H](CCC(N)=O)NC(=O)CNC(=O)[C@H](CCC(=O)O)NC(=O)[C@H](CC(C)C)NC(=O)[C@H](Cc1ccc(O)cc1)NC(=O)[C@H](CO)NC(=O)[C@H](CO)NC(=O)[C@@H](NC(=O)[C@H](CC(=O)O)NC(=O)[C@H](CO)NC(=O)[C@@H](NC(=O)[C@H](Cc1ccccc1)NC(=O)[C@@H](NC(=O)CNC(=O)[C@H](CCC(=O)O)NC(=O)[C@H](C)NC(=O)[C@@H](N)Cc1c[nH]cn1)[C@@H](C)O)[C@@H](C)O)C(C)C)[C@@H](C)CC)C(C)C)C(C)C)C(=O)O", "note": "[HS-20005]", "values": [{"measurement": "Emax", "setting": "[1]", "result": 89.1, "unit": "%"}]}
{"smiles": "CCCCCCCCCCCCCCCC(=O)N[C@@H](CCCCNC(=O)[C@H](CO)NC(=O)[C@@H]1CCCN1C(=O)[C@@H]1CCCN1C(=O)[C@@H]1CCCN1C(=O)CNC(=O)CNC(=O)[C@H](CCCCN)NC(=O)[C@H](CCCCN)NC(=O)CNC(=O)[C@H](CCCNC(=N)N)NC(=O)CNC(=O)[C@H](CCCCN)NC(=O)[C@@H](NC(=O)[C@H](CC(C)C)NC(=O)[C@H](Cc1c[nH]c2ccccc12)NC(=O)[C@@H](NC(=O)[C@@H](NC(=O)[C@H](Cc1ccccc1)NC(=O)[C@H](CCC(=O)O)NC(=O)[C@H](C)NC(=O)[C@H](C)NC(=O)[C@H](CCC(N)=O)NC(=O)[C@H](CCC(=O)O)NC(=O)[C@H](CCC(=O)O)NC(=O)[C@H](CC(C)C)NC(=O)[C@H](Cc1ccc(O)cc1)NC(=O)[C@H](CO)NC(=O)[C@H](CO)NC(=O)[C@@H](NC(=O)[C@H](CC(=O)O)NC(=O)[C@H](CO)NC(=O)[C@@H](NC(=O)[C@H](Cc1ccccc1)NC(=O)[C@@H](NC(=O)CNC(=O)[C@H](CCC(=O)O)NC(=O)[C@H](C)NC(=O)[C@@H](N)Cc1c[nH]cn1)[C@@H](C)O)[C@@H](C)O)C(C)C)[C@@H](C)CC)C(C)C)C(C)C)C(=O)O", "note": "[HS-20007]", "values": [{"measurement": "Emax", "setting": "[1]", "result": 87, "unit": "%"}]}
